Paper PMC5270475, “Structural Characterization and Ligand/Inhibitor Identification Provide Functional Insights into the Mycobacterium tuberculosis Cytochrome P450 CYP126A1” (The Journal of Biological Chemistry, 2016)

biological target: T1, CYP126A1 (Mycobacterium tuberculosis, UniProt P9WPN9); test: UV-visible absorbance titration (heme Soret shift); assay type: binding; conditions: read-out: Kd
T1 construct: gene cyp126
T1 sequence (P9WPN9 whole entry): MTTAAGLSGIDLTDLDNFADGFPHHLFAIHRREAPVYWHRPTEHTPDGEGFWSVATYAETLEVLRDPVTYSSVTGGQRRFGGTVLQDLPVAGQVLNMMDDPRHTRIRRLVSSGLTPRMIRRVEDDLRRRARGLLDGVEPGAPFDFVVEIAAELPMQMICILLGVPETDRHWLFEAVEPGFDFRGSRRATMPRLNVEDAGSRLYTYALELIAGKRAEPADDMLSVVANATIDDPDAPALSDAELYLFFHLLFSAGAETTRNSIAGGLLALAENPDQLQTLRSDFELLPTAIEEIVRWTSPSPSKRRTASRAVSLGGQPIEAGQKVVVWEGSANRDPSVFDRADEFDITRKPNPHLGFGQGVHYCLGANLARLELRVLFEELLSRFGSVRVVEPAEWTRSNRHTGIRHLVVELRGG

Structure (SMILES)	Kd [µM]
O=C1CCCC2Oc3c(cc(NS(=O)(=O)c4ccc([N+](=O)[O-])cc4)c4ccccc34)C12 (stereo not drawn) [compound 2, Compound 2]	2.85 ± 0.15
Cc1ccc(NC(=O)c2cccc3nc4ccccc4nc23)cc1 [compound 3, Compound 3]	56.1 ± 2.2
O=C1CC(N2CCN(Cc3ccc4c(c3)OCO4)CC2)C(=O)N1Cc1ccc(Cl)cc1 (stereo not drawn) [compound 4, 3-(4-(benzo[d][1,3]dioxol-5-ylmethyl)piperazin-1-yl)-1-(4-chlorobenzyl)pyrrolidine-2,5-dione]	65.2 ± 6.6
Cc1cccc(CSc2ncc(Cl)c(C(=O)Nc3nnc(C)s3)n2)c1 [compound 5, Compound 5]	6.15 ± 0.31
O=C(Nc1nc2ccc(F)cc2s1)c1nc(SCc2ccccc2F)ncc1Cl [compound 6, Compound 6]	25.3 ± 0.5
COc1ccc(-c2noc(CN(C(=O)Cc3ccc([N+](=O)[O-])cc3)C(C)C)n2)cc1 [compound 1, N-isopropyl-N-((3-(4-methoxyphenyl)-1,2,4-oxadiazol-5-yl)methyl)-2-(4-nitrophenyl)acetamide]	18.3 ± 1.3
